Results taken from ChEMBL document CHEMBL2396528, “Synthesis of new conjugated coumarin-benzimidazole hybrids and their anticancer activity” (2013).
Activity calls are given as the source filed them. No cut-off for these calls is given here.

Legend:
Assay type in all cases: functional
LOX IMVI = assay: Cytotoxicity against human LOXIMVI cells assessed as growth inhibition at 10 uM after 48 hrs by SRB assay relative to control; conditions: read-out: GI
T47D = assay: Cytotoxicity against human T47D cells assessed as growth inhibition at 10 uM after 48 hrs by SRB assay relative to control; conditions: read-out: GI
SN12C = assay: Cytotoxicity against human SN12C cells assessed as growth inhibition at 10 uM after 48 hrs by SRB assay relative to control; conditions: read-out: GI
NCI-H522 = assay: Cytotoxicity against human NCI-H522 cells assessed as growth inhibition at 10 uM after 48 hrs by SRB assay relative to control; conditions: NCI-H522, 48 h, read-out: GI
SK-MEL-5 = assay: Cytotoxicity against human SK-MEL-5 cells assessed as growth inhibition at 10 uM after 48 hrs by SRB assay relative to control; conditions: SK-MEL-5, 48 h, read-out: GI
SF-539 = assay: Cytotoxicity against human SF539 cells assessed as growth inhibition at 10 uM after 48 hrs by SRB assay relative to control; conditions: for inhibition of growth at 10 µM: SF-539, 48 h, read-out: GI
UO-31 = assay: Cytotoxicity against human UO31 cells assessed as growth inhibition at 10 uM after 48 hrs by SRB assay relative to control; conditions: UO-31, 48 h, read-out: GI
ACHN = assay: Cytotoxicity against human ACHN cells assessed as growth inhibition at 10 uM after 48 hrs by SRB assay relative to control; conditions: read-out: GI
SK-MEL-28 = assay: Cytotoxicity against human SK-MEL-28 cells assessed as growth inhibition at 10 uM after 48 hrs by SRB assay relative to control; conditions: SK-MEL-28, 48 h, read-out: GI
MDA-MB-231 = assay: Cytotoxicity against human MDA-MB-231 cells assessed as growth inhibition at 10 uM after 48 hrs by SRB assay relative to control; conditions: MDA-MB-231, 48 h, read-out: GI
UACC-62 = assay: Cytotoxicity against human UACC62 cells assessed as growth inhibition at 10 uM after 48 hrs by SRB assay relative to control; conditions: UACC-62, 48 h, read-out: GI
MCF7 = assay: Cytotoxicity against human MCF7 cells assessed as growth inhibition at 10 uM after 48 hrs by SRB assay relative to control; conditions: MCF7, 48 h, read-out: GI
[1] = Cytotoxicity against human NCI-ADR-RES cells assessed as growth inhibition at 10 uM after 48 hrs by SRB assay relative to control; conditions: read-out: GI
HCT-116 = assay: Cytotoxicity against human HCT116 cells assessed as growth inhibition at 10 uM after 48 hrs by SRB assay relative to control; conditions: HCT-116, 48 h, read-out: GI
OVCAR-4 = assay: Cytotoxicity against human OVCAR4 cells assessed as growth inhibition at 10 uM after 48 hrs by SRB assay relative to control; conditions: OVCAR-4, 48 h, read-out: GI
MOLT-4 = assay: Cytotoxicity against human MOLT4 cells assessed as growth inhibition at 10 uM after 48 hrs by SRB assay relative to control; conditions: MOLT-4, 48 h, read-out: GI

Structure (SMILES)	inhibition of growth at 10 µM (LOX IMVI)	inhibition of growth at 10 µM (T47D)	inhibition of growth at 10 µM (SN12C)	inhibition of growth at 10 µM (NCI-H522)	inhibition of growth at 10 µM (SK-MEL-5)	inhibition of growth at 10 µM (SF-539)	inhibition of growth at 10 µM (UO-31)	inhibition of growth at 10 µM (ACHN)	inhibition of growth at 10 µM (SK-MEL-28)	inhibition of growth at 10 µM (MDA-MB-231)	inhibition of growth at 10 µM (UACC-62)	inhibition of growth at 10 µM (MCF7)	inhibition of growth at 10 µM [1]	inhibition of growth at 10 µM (HCT-116)	inhibition of growth at 10 µM (OVCAR-4)	inhibition of growth at 10 µM (MOLT-4)	growth inhibition (GI) (SF-539)
O=c1oc2cc(Br)ccc2cc1-c1nc2ccccc2[nH]1	< 20%	28.4%	< 20%	20.6%	< 20%	< 20%	22.7%	< 20%	< 20%	26%	< 20%	30%	< 20%	< 20%	< 20%	< 20%	
CN1CCN(c2ccc3cc(-c4nc5ccccc5[nH]4)c(=O)oc3c2)CC1	< 20%	23.1%	< 20%	< 20%	< 20%	< 20%	34.6%	< 20%	< 20%	< 20%		26.3%	< 20%	< 20%	29.8%	< 20%	
O=c1oc2cc(NCCN3CCOCC3)ccc2cc1-c1nc2ccccc2[nH]1	< 20%	< 20%	< 20%	< 20%	< 20%	< 20%	34.3%	< 20%	< 20%	< 20%	< 20%	< 20%	< 20%	< 20%	< 20%	< 20%	
O=c1oc2cc(NCCO)ccc2cc1-c1nc2ccccc2[nH]1	54.3%	70.7%	22.4%	23.7%	35.8%	25.9%	41.9%	< 20%	< 20%	58.9%	27.2%	62.1%	23.7%	62.2%	44.8%	38%	
O=c1oc2cc(N3CCOCC3)ccc2cc1-c1nc2ccccc2[nH]1	< 20%	< 20%	< 20%	< 20%	< 20%	< 20%	24.9%	< 20%	< 20%	< 20%	< 20%	62.1%	< 20%	< 20%	< 20%	< 20%	
NCCNc1ccc2cc(-c3nc4ccccc4[nH]3)c(=O)oc2c1	< 20%	< 20%	< 20%	< 20%	< 20%	< 20%	< 20%	< 20%	< 20%	34%	< 20%	< 20%	< 20%	< 20%	< 20%	< 20%	
O=c1[nH]cc(F)c(=O)[nH]1 [FLUOROURACIL]	30.4%	56.7%	54%	58%			41.3%	39.3%	19.5%	78.1%	39.7%	11.5%	47.6%	17.8%	59.4%	43.1%	Active
